From paper PMC8138313, “Identification, Selection and Immune Assessment of Liver Stage CD8 T Cell Epitopes From Plasmodium falciparum” (Frontiers in Immunology, 2021)
Where a SMILES comes first, the peptide text is derived from it.

Tests used:
Assay in all cases: HLA class I binding assay (cell-free competition, fluorescence polarization)
HLA A*0201 = HLA A*0201 (Homo sapiens, UniProt P04439, D140Y/D185E/D98H/E176V/E277Q/G131W/G231S/I119V/I121R/I166T/I218V/L300P/L318F/N151K/N90K/P208A/P217A/Q86G/Q94H/R138H/R169H/T345S)
HLA A*0101 = HLA A*0101 (Homo sapiens, UniProt P04439, A114D/A174V/A182V/D101N/D185E/E176A/E190D/L180R/Q94H/R68K/S129P/T187R/V100A/V91M/W191G)
HLA A*2402 = HLA A*2402 (Homo sapiens, UniProt P04439, D101N/D140Y/D185E/E176V/E190D/F33S/G103R/G107R/I119L/I121M/I306V/K335N/L105A/L180Q/L300P/N151K/N90K/Q86E/Q94H/R106L/R138H/R89G/T104I/T345S/V100E/W191G/Y123F)
HLA A*0301 = HLA A*0301 (Homo sapiens, UniProt P04439)

| Compound | IC50 (HLA A*0101) [µM] | IC50 (HLA A*2402) [µM] | other results |
| --- | --- | --- | --- |
| CC(C)C[C@H](NC(=O)[C@H](C)NC(=O)[C@H](CC(=O)O)NC(=O)[C@H](Cc1ccccc1)NC(=O)[C@@H](NC(=O)[C@@H](N)CC(N)=O)[C@@H](C)O)C(=O)N[C@@H](Cc1ccc(O)cc1)C(=O)N[C@@H](Cc1ccc(O)cc1)C(=O)N[C@H](C(=O)O)C(C)C (H-NTFDALYYV-OH) | > 1000 | – | IC50 (HLA A*0201): 8.76 µM |
| CC[C@H](C)[C@H](N)C(=O)N[C@@H](Cc1ccc(O)cc1)C(=O)NCC(=O)N[C@@H](CCCCN)C(=O)NCC(=O)NCC(=O)N[C@@H](Cc1ccccc1)C(=O)N[C@@H](CCC(N)=O)C(=O)N[C@@H](Cc1ccccc1)C(=O)O (H-IYGKGGFQF-OH) | – | 0.163 | – |
| NCCCC[C@H](NC(=O)[C@H](Cc1ccc(O)cc1)NC(=O)[C@@H](N)CC(N)=O)C(=O)N[C@@H](CCC(N)=O)C(=O)N[C@@H](CC(N)=O)C(=O)N[C@@H](CC(N)=O)C(=O)N[C@@H](Cc1ccccc1)C(=O)N1CCC[C@H]1C(=O)N[C@@H](Cc1ccccc1)C(=O)O (H-NYKQNNFPF-OH) | – | 9.49 | – |
| CC[C@H](C)[C@H](N)C(=O)N[C@H](C(=O)N[C@@H](CC(N)=O)C(=O)N[C@@H](CCCCN)C(=O)N[C@@H](CC(N)=O)C(=O)N[C@@H](CCCCN)C(=O)N[C@H](C(=O)N[C@H](C(=O)N[C@H](C(=O)N[C@@H](Cc1ccc(O)cc1)C(=O)O)[C@@H](C)CC)[C@@H](C)O)C(C)C)[C@@H](C)O (H-ITNKNKVTIY-OH) | > 1000 | – | IC50 (HLA A*0301): 8.72 µM |
| CC(C)[C@H](NC(=O)[C@H](CO)NC(=O)[C@H](CCC(=O)O)NC(=O)[C@H](Cc1ccccc1)NC(=O)[C@H](Cc1ccccc1)NC(=O)[C@@H](NC(=O)[C@@H](N)[C@@H](C)O)[C@@H](C)O)C(=O)N[C@@H](CO)C(=O)N[C@@H](Cc1ccc(O)cc1)C(=O)O (H-TTFFESVSY-OH) | 338 | – | IC50 (HLA A*0301): 658 µM |
| CC[C@H](C)[C@H](NC(=O)[C@H](CO)NC(=O)[C@H](Cc1ccc(O)cc1)NC(=O)[C@@H](N)[C@@H](C)O)C(=O)N[C@@H](Cc1ccc(O)cc1)C(=O)N[C@H](C(=O)N[C@@H](CC(N)=O)C(=O)N[C@@H](Cc1ccccc1)C(=O)N[C@@H](CCCCN)C(=O)N[C@@H](CC(N)=O)C(=O)O)[C@@H](C)O (H-TYSIYTNFKN-OH) | – | 26.6 | – |
| CC(C)[C@H](NC(=O)[C@H](Cc1ccccc1)NC(=O)[C@H](CCC(N)=O)NC(=O)[C@H](Cc1ccccc1)NC(=O)CNC(=O)CNC(=O)[C@H](CCCCN)NC(=O)CNC(=O)[C@@H](N)Cc1ccc(O)cc1)C(=O)N[C@@H](Cc1ccccc1)C(=O)O (H-YGKGGFQFVF-OH) | – | 0.231 | – |
| CC(C)C[C@H](N)C(=O)N[C@@H](Cc1ccccc1)C(=O)NCC(=O)N[C@@H](CC(=O)O)C(=O)N[C@@H](CCC(=O)O)C(=O)N[C@@H](CC(N)=O)C(=O)N[C@@H](Cc1ccccc1)C(=O)N[C@@H](CO)C(=O)N[C@@H](Cc1ccccc1)C(=O)O (H-LFGDENFSF-OH) | – | 5.87 | – |
| CC(C)C[C@H](NC(=O)[C@H](Cc1ccccc1)NC(=O)[C@@H]1CCCN1)C(=O)N[C@@H](CCCCN)C(=O)N[C@@H](CO)C(=O)NCC(=O)N[C@@H](Cc1ccccc1)C(=O)N[C@H](C(=O)N[C@@H](Cc1ccccc1)C(=O)O)[C@@H](C)O (H-PFLKSGFTF-OH) | – | 8.32 | – |
| CC(C)[C@H](NC(=O)[C@H](CCC(=O)O)NC(=O)[C@H](Cc1ccccc1)NC(=O)[C@@H](NC(=O)[C@@H](N)CC(=O)O)[C@@H](C)O)C(=O)N[C@@H](Cc1ccc(O)cc1)C(=O)N[C@@H](CO)C(=O)N[C@@H](CCC(=O)O)C(=O)N[C@@H](Cc1ccc(O)cc1)C(=O)O (H-DTFEVYSEY-OH; N-terminus assumed) | > 1000 | – | IC50 (HLA A*0301): > 1000 µM |
| CC[C@H](C)[C@H](NC(=O)[C@@H](N)Cc1ccccc1)C(=O)N[C@@H](CC(=O)O)C(=O)N1CCC[C@H]1C(=O)N[C@@H](CCC(N)=O)C(=O)N[C@H](C(=O)N[C@@H](CCC(=O)O)C(=O)N[C@@H](CCSC)C(=O)N[C@@H](Cc1ccccc1)C(=O)N[C@@H](CCCCN)C(=O)O)[C@@H](C)O (H-FIDPQTEMFK-OH) | 46.6 | – | IC50 (HLA A*0301): 8.1 µM |
| CC(C)C[C@H](N)C(=O)N[C@H](C(=O)N[C@@H](Cc1c[nH]cn1)C(=O)N[C@@H](CCCCN)C(=O)N[C@@H](Cc1ccc(O)cc1)C(=O)N[C@@H](CC(N)=O)C(=O)N[C@@H](CCC(=O)O)C(=O)N[C@@H](Cc1ccccc1)C(=O)N[C@H](C(=O)O)C(C)C)[C@@H](C)O (H-LTHKYNEFV-OH) | 174 | – | IC50 (HLA A*0201): 2.41 µM |
| CSCC[C@H](NC(=O)[C@@H](N)CC(N)=O)C(=O)N[C@@H](CC(N)=O)C(=O)N[C@@H](Cc1ccc(O)cc1)C(=O)N[C@@H](CCCCN)C(=O)N[C@@H](CCC(N)=O)C(=O)N[C@@H](CC(N)=O)C(=O)N[C@@H](CC(N)=O)C(=O)N[C@@H](Cc1ccccc1)C(=O)O (H-NMNYKQNNF-OH) | – | 14.7 | – |
| CSCC[C@H](NC(=O)[C@H](CC(N)=O)NC(=O)[C@H](CCC(N)=O)NC(=O)[C@H](CC(N)=O)NC(=O)[C@H](C)NC(=O)[C@H](CCSC)NC(=O)[C@@H](N)[C@@H](C)O)C(=O)N[C@@H](CC(N)=O)C(=O)N[C@@H](Cc1ccc(O)cc1)C(=O)O (H-TMANQNMNY-OH) | 2.02 | – | IC50 (HLA A*0301): 0.943 µM |
| CC(C)[C@H](NC(=O)[C@H](CC(N)=O)NC(=O)[C@@H](NC(=O)[C@@H](N)Cc1ccccc1)[C@@H](C)O)C(=O)N[C@@H](CC(N)=O)C(=O)N[C@@H](CCC(N)=O)C(=O)N[C@@H](Cc1ccccc1)C(=O)N[C@@H](Cc1ccccc1)C(=O)N[C@@H](CCCCN)C(=O)O (H-FTNVNQFFK-OH) | > 1000 | – | IC50 (HLA A*0301): 0.921 µM |
| CC[C@H](C)[C@H](NC(=O)CNC(=O)[C@H](Cc1ccc(O)cc1)NC(=O)[C@@H](N)Cc1c[nH]cn1)C(=O)N[C@@H](CC(N)=O)C(=O)N1CCC[C@H]1C(=O)N[C@H](C(=O)N[C@@H](CCC(N)=O)C(=O)N[C@@H](CC(C)C)C(=O)O)C(C)C (H-HYGINPVQL-OH) | – | 6.79 | – |
| CC[C@H](C)[C@H](NC(=O)[C@H](CCCNC(=N)N)NC(=O)[C@@H]1CCCN1C(=O)[C@H](CC(=O)O)NC(=O)[C@H](Cc1ccc(O)cc1)NC(=O)[C@@H](N)CCCCN)C(=O)N[C@@H](CO)C(=O)NCC(=O)N[C@@H](Cc1c[nH]c2ccccc12)C(=O)O (H-KYDPRISGW-OH) | – | 5.01 | – |
| CC[C@H](C)[C@H](N)C(=O)N[C@@H](Cc1c[nH]c2ccccc12)C(=O)N[C@@H](Cc1ccc(O)cc1)C(=O)N[C@@H](CCCCN)C(=O)N[C@@H](Cc1ccc(O)cc1)C(=O)N[C@H](C(=O)N[C@@H](CCC(=O)O)C(=O)N[C@@H](CO)C(=O)N[C@@H](CC(=O)O)C(=O)N[C@@H](Cc1ccccc1)C(=O)O)[C@@H](C)O (H-IWYKYTESDF-OH) | – | 1.12 | – |
| CC(C)[C@H](NC(=O)[C@H](CCCNC(=N)N)NC(=O)[C@H](CC(N)=O)NC(=O)[C@H](CCCCN)NC(=O)[C@H](Cc1ccc(O)cc1)NC(=O)[C@@H](NC(=O)[C@H](CC(N)=O)NC(=O)[C@H](Cc1ccc(O)cc1)NC(=O)[C@@H](N)Cc1c[nH]cn1)[C@@H](C)O)C(=O)N[C@@H](Cc1ccccc1)C(=O)O (H-HYNTYKNRVF-OH) | – | 3 | – |
| CSCC[C@H](N)C(=O)N[C@@H](Cc1ccc(O)cc1)C(=O)N[C@@H](Cc1c[nH]cn1)C(=O)N[C@@H](CC(N)=O)C(=O)N[C@@H](CCCCN)C(=O)N[C@@H](CCC(=O)O)C(=O)N[C@@H](Cc1ccccc1)C(=O)N[C@@H](CC(=O)O)C(=O)N[C@@H](Cc1ccccc1)C(=O)O (H-MYHNKEFDF-OH) | – | 4.51 | – |
| C[C@@H](O)[C@H](NC(=O)[C@H](Cc1ccc(O)cc1)NC(=O)[C@H](CCCCN)NC(=O)[C@H](Cc1ccc(O)cc1)NC(=O)[C@@H](N)Cc1c[nH]c2ccccc12)C(=O)N[C@@H](CCC(=O)O)C(=O)N[C@@H](CO)C(=O)N[C@@H](CC(=O)O)C(=O)N[C@@H](Cc1ccccc1)C(=O)O (H-WYKYTESDF-OH) | – | 2.51 | – |
| CC[C@H](C)[C@H](NC(=O)[C@H](CC(=O)O)NC(=O)[C@@H](NC(=O)[C@@H](N)CO)[C@@H](C)O)C(=O)N[C@H](C(=O)N[C@@H](Cc1ccccc1)C(=O)N[C@@H](CC(C)C)C(=O)N[C@H](C(=O)N[C@@H](CCSC)C(=O)N[C@@H](CCCCN)C(=O)O)[C@@H](C)O)[C@@H](C)CC (H-STDIIFLTMK-OH) | > 1000 | – | IC50 (HLA A*0301): 8.78 µM |
| CC[C@H](C)[C@H](NC(=O)[C@@H](NC(=O)[C@@H]1CCCN1C(=O)[C@H](Cc1ccc(O)cc1)NC(=O)[C@@H](N)Cc1ccc(O)cc1)[C@@H](C)CC)C(=O)N[C@@H](CCCNC(=N)N)C(=O)N[C@@H](CCCCN)C(=O)N[C@@H](CCC(N)=O)C(=O)N[C@@H](Cc1ccccc1)C(=O)O (H-YYPIIRKQF-OH) | – | 0.101 | – |
| CC(C)C[C@H](NC(=O)[C@@H]1CCCN1C(=O)[C@H](Cc1ccccc1)NC(=O)[C@H](CC(N)=O)NC(=O)[C@H](Cc1ccccc1)NC(=O)[C@H](CC(N)=O)NC(=O)[C@H](CCC(=O)O)NC(=O)[C@H](CC(C)C)NC(=O)[C@@H](N)Cc1ccccc1)C(=O)O (H-FLENFNFPL-OH) | > 1000 | – | IC50 (HLA A*0201): 3.68 µM |
| CC(C)[C@H](NC(=O)[C@H](CC(N)=O)NC(=O)[C@@H]1CCCN1C(=O)[C@H](CO)NC(=O)[C@@H](N)CC(N)=O)C(=O)N[C@@H](CC(N)=O)C(=O)N[C@@H](CCCCN)C(=O)N[C@@H](CCCNC(=N)N)C(=O)N[C@@H](Cc1ccc(O)cc1)C(=O)O (H-NSPNVNKRY-OH; N-terminus assumed) | > 1000 | – | – |
| CC(C)C[C@H](NC(=O)CNC(=O)[C@@H]1CCCN1C(=O)[C@H](Cc1ccccc1)NC(=O)[C@@H](NC(=O)[C@H](CO)NC(=O)[C@@H](NC(=O)[C@@H](N)Cc1c[nH]cn1)[C@@H](C)O)C(C)C)C(=O)N[C@@H](Cc1ccc(O)cc1)C(=O)O (H-HTSVFPGLY-OH) | 5.65 | – | – |
